From patent publication US12606556B2, “TYK-2 inhibitor” (BEIGENE, LTD., priority 2020, dated 2026)

Columns and labels:
[1] = test system: JAK2, TYK2/p-STAT4 (Tyr693) activated by IL-12 in NK-92 cell line; experiment: IL-12-JAK2, TYK2/p-STAT4 (Tyr693) inhibition cellular assay; assay type: cell-based; settings: for IC50: NK92, 0.5 h, NK-92 cells, IL-12 40 ng/ml, 30 min, read-out: Cellular assay pSTAT4/IL-12 IC50; for Cellular assay Selectivity fold (TYK2/JAK1): pSTAT4/IL-12 vs pSTAT3/IL-6 cellular IC50
Summary of the method: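 NK-92 cells were starved overnight without IL-2 and seeded at 5×10^4 per well in 1640 medium with 0.1% BSA. Lysate p-STAT4 (Tyr693) was measured by AlphaLISA SureFire, and IC50 was fitted with a 4-parameter logistic model.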

[2] = biological target: T1, TYK2-JH2 (aa 575-869, in-house) protein (Homo sapiens, UniProt P29597); experiment: TYK2-JH2 biochemical assay (HTRF, blocking of TYK2-JH2 protein with its probe); assay type: binding; settings: for IC50: HTRF, 0.2 nM recombinant TYK2-JH2, Probe 1; for Biochemical assay Selectivity fold (TYK2/JAK1): TYK2-JH2 vs JAK1-JH2 biochemical IC50
T1 construct: TYK2-JH2 (aa 575-869, in-house) protein; made in house
Summary of the method: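 Recombinant TYK2-JH2 (0.2 nM) pre-incubated with compounds (10 doses, 5-fold dilutions) 0.5 h at RT in HEPES pH 7.5 buffer with MgCl2, BSA, DTT, Brij-35; biotinylated probe (10 nM working solution, KD=10 nM) plus anti-6His Tb cryptate/streptavidin-XL665 added, 1 h RT. HTRF ratio read; IC50 from four-parameter logistic fit.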

[3] = test system: JAK1/p-STAT3(Tyr705) activated by IL-6 in TF-1 cell line; experiment: IL-6-JAK1/p-STAT3(Tyr705) inhibition cellular assay; assay type: cell-based; settings: Homo sapiens, 0.5 h; TF-1 cells, IL-6 50 ng/ml, 30 min; read-out: Cellular assay pSTAT3/IL-6 IC50
[4] = biological target: T2, JAK1-JH2 protein (aa 561-860, in-house) (Homo sapiens, UniProt P23458); experiment: JAK1-JH2 biochemical assay (HTRF, blocking of JAK1-JH2 protein with its probe); assay type: binding; settings: 1.17 nM recombinant JAK1-JH2, Probe 2
T2 construct: JAK1-JH2 protein (aa 561-860, in-house); made in house
Summary of the method: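 HTRF probe-displacement assay using recombinant human JAK1 pseudokinase domain (aa 561-860, 1.17 nM in pre-incubation step), pre-incubated 0.5 h at room temperature with 10-dose 5-fold compound series. Buffer: 20 mM HEPES pH 7.5, 10 mM MgCl2, 0.005% BSA, 2 mM DTT, 0.015% Brij-35. IC50 by four-parameter logistic fit of 615/665 nm ratio.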

T2 sequence (P23458 561-860): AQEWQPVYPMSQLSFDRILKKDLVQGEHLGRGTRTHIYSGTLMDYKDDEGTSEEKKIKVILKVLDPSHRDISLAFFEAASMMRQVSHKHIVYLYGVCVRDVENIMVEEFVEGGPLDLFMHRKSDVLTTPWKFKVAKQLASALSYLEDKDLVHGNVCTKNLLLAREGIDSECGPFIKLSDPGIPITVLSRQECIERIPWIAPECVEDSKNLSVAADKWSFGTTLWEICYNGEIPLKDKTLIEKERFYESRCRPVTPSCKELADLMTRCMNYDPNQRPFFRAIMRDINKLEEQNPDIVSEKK
T1 sequence (P29597 575-869): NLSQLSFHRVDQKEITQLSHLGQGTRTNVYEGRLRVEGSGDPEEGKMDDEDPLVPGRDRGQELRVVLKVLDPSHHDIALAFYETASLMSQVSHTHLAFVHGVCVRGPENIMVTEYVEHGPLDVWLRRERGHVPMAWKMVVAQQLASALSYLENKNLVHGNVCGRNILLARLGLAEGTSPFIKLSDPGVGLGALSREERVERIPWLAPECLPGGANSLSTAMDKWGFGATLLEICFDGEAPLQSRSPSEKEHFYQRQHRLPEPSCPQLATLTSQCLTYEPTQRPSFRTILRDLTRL

SMILES	IC50 [1] [nM]	Cellular assay Selectivity fold (TYK2/JAK1) [1] [fold]	IC50 [2] [nM]	Biochemical assay Selectivity fold (TYK2/JAK1) [2] [fold]	IC50 [3] [nM]	IC50 [4] [nM]
CNC(=O)c1nnc(NC(=O)C2CC2)cc1Nc1nc2ccc(N3CC(COC)C3)cn2n1 [Example E15, 6-(cyclopropanecar-boxamido)-4-((6-(3-(methoxymethyl)azetidin-1-yl)-[1,2,4]triazolo[1,5-a]pyridin-2-yl)amino)-N-methylpyridazine-3-carboxamide]	8.14	>1228	0.045	29	> 10000	1.3
CNC(=O)c1nnc(NC(=O)C2CC2)cc1Nc1nc2ccc(N3CC(OCCOC)C3)cn2n1 [Example E16, 6-(cyclopropanecar-boxamido)-4-((6-(3-(2-methoxyethoxy)azetidin-1-yl)-[1,2,4]triazolo[1,5-a]pyridin-2-yl)amino)-N-methylpyridazine-3-carboxamide]	15.6	186	0.046	20	2910	0.93
CNC(=O)c1nnc(NC(=O)C2CC2)cc1Nc1nc2ccc(N3CC(F)(COC)C3)cn2n1 [Example E17, 6-(cyclopropanecar-boxamido)-4-((6-(3-fluoro-3-(methoxy-methyl)azetidin-1-yl)-[1,2,4]triazolo[1,5-a]pyridin-2-yl)amino)-N-methylpyridazine-3-carboxamide]	8.28	317	0.071	35	2630	2.5
CNC(=O)c1nnc(NC(=O)C2CC2)cc1Nc1nc2ccc(N3CC(S(C)(=O)=O)C3)cn2n1 [Example E18, 6-(cyclopropanecar-boxamido)-N-methyl-4-((6-(3-(methyl-sulfonyl)azetidin-1-yl)-[1,2,4]triazolo [1,5-a]pyridin-2-yl)amino)pyridazine-3-carboxamide]	645	>15.5	0.12	13	> 10000	1.5
CNC(=O)c1nnc(NC(=O)C2CC2)cc1Nc1nc2ccc(N3CC(Oc4ccc(F)cc4F)C3)cn2n1 [Example E19, 6-(cyclopropanecar-boxamido)-4-((6-(3-(2,4-difluorophenoxy)azetidin-1-yl)-[1,2,4]triazolo[1,5-a]pyridin-2-yl)amino)-N-methylpyridazine-3-carboxamide]	105	>95	0.14	60	> 10000	8.4
CNC(=O)c1nnc(NC(=O)C2CC2)cc1Nc1nc2ccc(N3CCC3COC)cn2n1 (stereo not drawn) [Example E20, 6-(cyclopropanecar-boxamido)-4-((6-(2-(methoxymethyl)azetidin-1-yl)-[1,2,4]triazolo[1,5-a]pyridin-2-yl)amino)-N-methylpyridazine-3-carboxamide]	16.4	>609	0.089	36	> 10000	3.2
CNC(=O)c1nnc(NC(=O)C2CC2)cc1Nc1nc2ccc(N3CCC(N4CC(N(C)C)C4)CC3)cn2n1 [Example E21, 6-(cyclopropanecar-boxamido)-4-((6-(4-(3-(dimethylamino)azetidin-1-yl)piperidin-1-yl)-[1,2,4]triazolo [1,5-a]pyridin-2-yl)amino)-N-methylpyridazine-3-carboxamide]	42	>238	0.077	36	> 10000	2.78
CCN(CC)C1CN(c2ccc3nc(Nc4cc(NC(=O)C5CC5)nnc4C(=O)NC)nn3c2)C1 [Example E22, 6-(cyclopropanecar-boxamido)-4-((6-(3-(diethylamino)azetidin-1-yl)-[1,2,4]triazolo [1,5-a]pyridin-2-yl)amino)-N-methylpyridazine-3-carboxamide]	37.2	138	0.093	11	5120	1.03
CNC(=O)c1nnc(NC(=O)C2CC2)cc1Nc1nc2ccc(N3CC(N(C)S(C)(=O)=O)C3)cn2n1 [Example F1, 6-(cyclopropanecarboxamido)-N-methyl-4-((6-(3-(N-methylmethylsulfonamido)azetidin-1-yl)-[1,2,4]triazolo[1,5-a]pyridin-2-yl)amino)pyridazine-3-carboxamide]	95	>105	0.12	22	> 10000	2.6
CNC(=O)c1nnc(NC(=O)C2CC2)cc1Nc1nc2ccc(N3CC(C(C)O)C3)cn2n1 (stereo not drawn) [Example G1, 6-(cyclopropanecarboxamido)-4-((6-(3-(1-hydroxyethyl)azetidin-1-yl)-[1,2,4]triazolo[1,5-a]pyridin-2-yl)amino)-N-methylpyridazine-3-carboxamide]	9.05	>1104	0.076	24	> 10000	1.8
CNC(=O)c1nnc(NC(=O)C2CC2)cc1Nc1nc2ccc(N3CC(O)C3)cn2n1 [Example H1, 6-(cyclopropanecarboxamido)-4-((6-(3-hydroxyazetidin-1-yl)-[1,2,4]triazolo[1,5-a]pyridin-2-yl)amino)-N-methylpyridazine-3-carboxamide]	34.2	>292	0.057	21	> 10000	1.2
CNC(=O)c1nnc(NC(=O)C2CC2)cc1Nc1nc2ccc(N3CC(F)(CO)C3)cn2n1 [Example J1, 6-(cyclopropanecarboxamido)-4-((6-(3-fluoro-3-(hydroxymethyl)azetidin-1-yl)-[1,2,4]triazolo[1,5-a]pyridin-2-yl)amino)-N-methylpyridazine-3-carboxamide]	15.6	>641	0.086	21	> 10000	1.8
CNC(=O)c1nnc(NC(=O)C2CC2)cc1Nc1nc2ccc(N3CCC3CO)cn2n1 (stereo not drawn) [Example J2, 6-(cyclopro-panecar-boxamido)-4-((6-(2-(hydroxy-methyl)azetidin-1-yl)-[1,2,4]triazolo[1,5-a]pyridin-2-yl)amino)-N-methyl-pyridazine-3-carboxamide]	14.9	292	0.053	25	4360	1.3
CNC(=O)c1nnc(NC(=O)C2CC2)cc1Nc1nc2ccc(N3C(=O)CC3c3ccccc3)cn2n1 (stereo not drawn) [Example K1, 6-(cyclopropanecarboxamido)-N-methyl-4-((6-(2-oxo-4-phenylazetidin-1-yl)-[1,2,4]triazolo[1,5-a]pyridin-2-yl)amino)pyridazine-3-carboxamide]	219	>46	0.5	8	> 10000	3.8
CNC(=O)c1nnc(NC(=O)C2CC2)cc1Nc1nc2ccc(C3CN(S(C)(=O)=O)C3)cn2n1 [Example L1, 6-(cyclopropanecarboxamido)-N-methyl-4-((6-(1-(methylsulfonyl)azetidin-3-yl)-[1,2,4]triazolo[1,5-a]pyridin-2-yl)amino)pyridazine-3-carboxamide]	50.9	>196	0.093	40	> 10000	3.7
CNC(=O)c1nnc(NC(=O)C2CC2)cc1Nc1nc2ccc(C3CN(C(C)=O)C3)cn2n1 [Example L2, 4-((6-(1-acetylazetidin-3-yl)-[1,2,4]triazolo[1,5-a]pyridin-2-yl)amino)-6-(cyclopropanecarboxamido)-N-methylpyridazine-3-carboxamide]	276	>36	0.081	32	> 10000	2.6
